Tested on: peripheral blood lymphocytes (PBLs) of prostate cancer patients and matched controls
Test: γH2AX foci immunofluorescence in PHA/IL-2-stimulated peripheral blood lymphocytes after DNA damaging agents
Format: cell-based, human
Conditions: PBLs from 9 patients and 10 age- and gender-matched controls; 10 μM aphidicolin or 25 μM etoposide; fixed 2 hours later; p=0.0337 (aphidicolin), p=0.007 (etoposide)
Protocol: Peripheral blood lymphocytes (PBLs) were available from 9/12 of the exome sequenced patients and 10 age-matched and gender-matched individuals without a cancer diagnosis or a family history of cancer. […] For analysis of DDR, cells were cultured in RPMI-1640 containing 15% fetal bovine serum (HyClone Laboratories, Logan, Utah), 2 mM L-glutamine (Life Technologies, Grand Island, N.Y.), 50 μM 2-mercaptoethanol (Sigma-Aldrich, St. Louis, Mo.), 0.2 units human recombinant insulin (Sigma) per ml, 50 units penicillin and 50 mg streptomycin per ml (complete RPMI), and then stimulated with phytohemagglutinin (PHA)-M (Life Technologies, Grand Island, N.Y.) and recombinant human interleukin 2 (IL-2) (NCI Preclinical Repository) for 72 hours. […] For immunofluorescence, cells were allowed to attach to poly-d-lysine-coated 96-well plates, stained with anti-γH2AX antibody (#05-636, Millipore, Temecula, Calif.). Sixteen images per well were acquired at 20× (with each image acquired in 2 channels to detect γH2AX with TRITC and total DNA with DAPI) utilizing the ImageXpress micro automated microscope (Molecular Devices, Sunnyvale, Calif.) driven by MetaXpress software. […]

C[C@@]1(CO)[C@H](O)CC[C@@]2(C)[C@H]1CC[C@H]1C[C@@H]3C[C@@]12CC[C@]3(O)CO [aphidicolin]
γH2AX induction (nuclear γH2AX foci per cell), cases versus controls: higher magnitude of induction seen in prostate cancer patients

— patent US10724100B2, “Systems and methods for treating patients having a genetic predisposition to develop prostate cancer” (Institute for Cancer Research, priority 2015, dated 2020)
